Measurements from article PMC4256282, “Profound Activity of the Anti-cancer Drug Bortezomib against Echinococcus multilocularis Metacestodes Identifies the Proteasome as a Novel Drug Target for Cestodes” (PLoS Neglected Tropical Diseases, 2014).

What was measured:
[1] = target: T1, proteasome subunit beta 5 of E. multilocularis (EmPSMB5, EmuJ_000590200_1) (Echinococcus multilocularis, UniProt A0A068Y5K9); assay: biochemical
T1 sequence (A0A068Y5K9 66-269): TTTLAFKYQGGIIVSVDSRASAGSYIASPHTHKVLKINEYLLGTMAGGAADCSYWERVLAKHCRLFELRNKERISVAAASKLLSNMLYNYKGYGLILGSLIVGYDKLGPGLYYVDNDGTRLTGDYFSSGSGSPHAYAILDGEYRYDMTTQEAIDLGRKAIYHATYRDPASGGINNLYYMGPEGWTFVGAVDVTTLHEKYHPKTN

[2] = target: bovine chymotrypsin (Bos taurus, UniProt P00766); assay: in-gel fluorescent zymography with SLLVT-AMC, chymotrypsin […] ng per lane, single BTZ concentration; assay type: biochemical

Q: Which results are given for `CC(C)C[C@H](NC(=O)[C@H](Cc1ccccc1)NC(=O)c1cnccn1)B(O)O` [BTZ, bortezomib]?
A: IC50 [1]: 0.76 µM; in-gel fluorescent zymography with SLLVT-AMC, chymotrypsin 5 ng per lane, single [2]: BTZ can inhibit also other targets, such as for example chymotrypsin (as shown in the control of Figure 7B)
